Test [1] has as its system S. pneumoniae D39V. In words: fitness (endpoint OD595 vs no drug) (fraction); higher = more growth. Put shortly:
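With the first reading as background, OD595 was measured every 30 min for 14 h in 384-well plates kept at 37 °C and inoculated at OD595 0.01. TSB, LB Lennox or CY was the medium. Fitness is the optical density at the transition into stationary phase divided by the robust mean of no-drug control wells, with a cap of 1.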

The test system of a further test is B. subtilis 168. Put plainly: Bliss interaction score (quartile over a dose matrix) (fitness difference); higher = more antagonism (negative = synergy). The method in brief: (§1)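 The Bliss score is observed fitness minus expected fitness, where the expected value is the product of single-drug fitness values inferred from combination data. Fitness is OD595 at entry into stationary phase normalised to the plate's robust no-drug mean and capped at 1. Scores are reported as quartiles spanning technical, biological and donor/recipient replicates.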

In another test the test system is S. aureus DSM 20231. The test is described as above. The method in brief: as §1
The subject of a further test is S. aureus Newman. Described as above. The method in brief:
as §1

Test [2] deals with S. pneumoniae D39V. The description is as above. Put shortly: as §1
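For Bliss interaction score (quartile over a dose matrix) in this document: first quartile when negative (synergy) and third quartile when positive (antagonism).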

In the case of `O=C1CN(/N=C/c2ccc([N+](=O)[O-])o2)C(=O)N1` [Nitrofurantoin] + CCN(CC)CCOC(=O)c1ccc(N)cc1 [Procaine], the fitness in the test with S. pneumoniae D39V [1] (first compound 1.285 µg/mL, partner 85.5 µg/mL) is 0.994; in the test on S. pneumoniae D39V [1] (first compound 1.285 µg/mL, partner 171 µg/mL) it was 0.987; in the test on S. pneumoniae D39V [1] (first compound 1.285 µg/mL, partner 342 µg/mL) it was 0.994; in the test with S. pneumoniae D39V [1] (first compound 2 µg/mL, partner 85.5 µg/mL, one replicate) it was 0.964; in the test on S. pneumoniae D39V [1] (first compound 2 µg/mL, partner 171 µg/mL, one replicate), at least 1; with S. pneumoniae D39V [1] (first compound 2 µg/mL, partner 342 µg/mL, one replicate), 0.914. The fitness in the test on S. pneumoniae D39V [1] (first compound 2.57 µg/mL, partner 85.5 µg/mL) came out at 0.972; with S. pneumoniae D39V [1] (first compound 2.57 µg/mL, partner 171 µg/mL), 0.964; with S. pneumoniae D39V [1] (first compound 2.57 µg/mL, partner 342 µg/mL), 0.934; in the test with S. pneumoniae D39V [1] (first compound 4 µg/mL, partner 85.5 µg/mL, one replicate), 0.951; in the test with S. pneumoniae D39V [1] (first compound 4 µg/mL, partner 171 µg/mL, one replicate), 0.979; with S. pneumoniae D39V [1] (first compound 4 µg/mL, partner 342 µg/mL, one replicate), 0.879. The fitness with S. pneumoniae D39V [1] (first compound 5.14 µg/mL, partner 85.5 µg/mL, one replicate) is 0.921; with S. pneumoniae D39V [1] (first compound 5.14 µg/mL, partner 171 µg/mL, one replicate) it was 0.943; in the test with S. pneumoniae D39V [1] (first compound 5.14 µg/mL, partner 342 µg/mL, one replicate), 0.918; with S. pneumoniae D39V [1] (first compound 8 µg/mL, partner 85.5 µg/mL, one replicate), 0.858; in the test on S. pneumoniae D39V [1] (first compound 8 µg/mL, partner 171 µg/mL, one replicate), 0.908; in the test with S. pneumoniae D39V [1] (first compound 8 µg/mL, partner 342 µg/mL, one replicate), 0.837. The Bliss interaction score was found to be 0.106 in the test with B. subtilis 168, 0.0706 with S. aureus DSM 20231, 0.0593 with S. aureus Newman and 0.0619 in the test with S. pneumoniae D39V [2].
As for `O=C1CN(/N=C/c2ccc([N+](=O)[O-])o2)C(=O)N1` [Nitrofurantoin] + COc1ccc(C[C@H](N)C(=O)N[C@H]2[C@@H](O)[C@H](n3cnc4c(N(C)C)ncnc43)O[C@@H]2CO)cc1 [Puromycin], the fitness with S. pneumoniae D39V [1] (first compound 1.285 µg/mL, partner 1 µg/mL) is 0.989; in the test with S. pneumoniae D39V [1] (first compound 1.285 µg/mL, partner 2 µg/mL), 0.966; in the test on S. pneumoniae D39V [1] (first compound 1.285 µg/mL, partner 4 µg/mL), 0.808; in the test on S. pneumoniae D39V [1] (first compound 2 µg/mL, partner 1 µg/mL, one replicate), 0.901; in the test on S. pneumoniae D39V [1] (first compound 2 µg/mL, partner 2 µg/mL, one replicate) it was 0.821; in the test with S. pneumoniae D39V [1] (first compound 2 µg/mL, partner 4 µg/mL, one replicate) it was 0.757. Further, the fitness was 0.947 in the test on S. pneumoniae D39V [1] (first compound 2.57 µg/mL, partner 1 µg/mL); 0.901 in the test with S. pneumoniae D39V [1] (first compound 2.57 µg/mL, partner 2 µg/mL); 0.742 in the test on S. pneumoniae D39V [1] (first compound 2.57 µg/mL, partner 4 µg/mL); 0.899 with S. pneumoniae D39V [1] (first compound 4 µg/mL, partner 1 µg/mL, one replicate); 0.915 with S. pneumoniae D39V [1] (first compound 4 µg/mL, partner 2 µg/mL, one replicate); 0.767 with S. pneumoniae D39V [1] (first compound 4 µg/mL, partner 4 µg/mL, one replicate). Further, the fitness was determined as 0.905 in the test with S. pneumoniae D39V [1] (first compound 5.14 µg/mL, partner 1 µg/mL, one replicate); 0.88 in the test on S. pneumoniae D39V [1] (first compound 5.14 µg/mL, partner 2 µg/mL, one replicate); 0.592 in the test with S. pneumoniae D39V [1] (first compound 5.14 µg/mL, partner 4 µg/mL, one replicate); 0.652 with S. pneumoniae D39V [1] (first compound 8 µg/mL, partner 1 µg/mL, one replicate); 0.711 in the test with S. pneumoniae D39V [1] (first compound 8 µg/mL, partner 2 µg/mL, one replicate); 0.38 in the test on S. pneumoniae D39V [1] (first compound 8 µg/mL, partner 4 µg/mL, one replicate). The Bliss interaction score with B. subtilis 168 is 0.1; in the test on S. aureus DSM 20231, 0.0289; with S. aureus Newman, 0.098; in the test with S. pneumoniae D39V [2], -0.135.

These data come from the supplement of paper PMC10627819.
